According to patent US20050282747A1, “Methods and compositions for wound healing” (The Research Foundation of State University of New York at …, priority 2003, published 2005):

What was measured:
[1] = test system: CF-31 fibroblasts; assay: Cell spreading on RGD-peptide coupled HA-DTPH/PEGDA hydrogel surface, CF-31; format: cell-based, human; settings: for percentage of spreading cells / percentage of round cells: complete medium, 18 h post seeding
Method: (§1) Cell culture. Dermal fibroblasts from a person (CF-31) (Clonetics, San Diego) and NIH 3T3 fibroblast (ATCC) were routinely cultured in completed DMEM/F-12 medium supplied with 10% new-born calf serum (for NIH 3T3 fibroblast) or fetal bovine serum (for CF-31 fibroblast), 2 mM L-glutamine and 100 units/ml antibotic-antimycotic (GIBCO BRL, Life Technologies, Grand Island, N.Y.), and 50 μg/ml ascorbic acid (Sigma) at 37° C. in a humidified 5% CO2 incubator. Monolayers of fibroblasts in their growth phase (ca. 90% confluence) were dissociated with trypsin/1 mM EDTA in DPBS, centrifuged and resuspended in the serum free medium or complete medium.
Cell spreading on the RGD-peptides coupled HA-DTPH/PEGDA hydrogel surface. HA-DTPH/PEGDA hydrogels or hydrogel films in 24-well plate were rinsed with serum free medium or complete medium 3 times, and then CF-31 and NIH 3T3 fibroblasts were seeded on the surface of the hydrogel or hydrogel film surface at a density of 4×10^4/well. Then, 1 ml of serum free medium or complete medium was added into each well, and the cells were cultured at 37° C. in a humidified 5% CO2 incubator. At 2, 4, 8 and 18 h post seeding, 0.4 ml of 10% formalin solution (Sigma) was added into each well to fix cell for 15 min. The cells were then stained at room temperature with 0.1% crystal violet in 200 mM boric acid (pH 8.0) for 15 minutes. Photomicrographs of the cytoplasmic-stained cells were taken a 100×total magnification using an inverted Nikon microscope with a CCD camera on a minimum of five random fields per well (n=3 per composition). The bundled Spot 3.0 software (Diagnostic Instruments, Sterling Heights, MI) was used to classify the cell morphology into 3 categories viz. round, partially spread or fully spread as reported by Neff etc[47]. It was defined that cells with surface area <2000 pixels^2 were completely round, 2000 pixels^2 <cells with area <8000 pixels^2 had few cytoplasmic extensions although they maintained a somewhat round appearance, and cells with surface areas >8000 pixels^2 were fully spreading and had multiple cytoplasmic extensions in various directions.

[2] = test system: NIH 3T3 fibroblasts; assay: Cell proliferation on the RGD-peptide coupled HA-DTPH/PEGDA hydrogel surface (MTS assay); format: cell-based; settings: PEGDA 3400; for proliferation of NIH 3T3 fibroblasts on surface: in 24 h, peptide concentration in bulk 0.268 mM
Method: Cell proliferation on the RGD-peptide coupled HA-DTPH/PEGDA hydrogel surface. Peptide-coupled HA-DTPH/PEGDA hydrogels or hydrogel films in 24-well plates were rinsed 3 times with complete medium, and then CF-31 and NIH 3T3 fibroblasts were seeded on the surface of the hydrogel or hydrogel film surface at a density of 1×10^4/well. After that 1 ml of complete medium was added into each well, and the cells were cultured at 37° C. in a humidified 5% CO2 incubator and the medium was changed daily. At different time points (day 1, 2, 3 and 4), the cell number was determined by MTS assay (Cell-Titer 96 Proliferation Kit, Promega, Madison, Wis.) as previously described Shu, et al., Biomacromolecules 3:1304, 2002; Ren and Tang, Anticancer Res. 19:403, 1999) and the absorption recorded at 550 nm with an OPTI Max microplate reader (Molecular Devices). Cell numbers were obtained using standard curves generated from the assay.

[3] = test system: NIH 3T3 fibroblasts; assay: Cell proliferation inside the RGD-peptide coupled HA-DTPH/PEGDA hydrogel (MTT assay, F-DA/PI staining); format: cell-based; settings: NIH 3T3 encapsulated at 1×10^6/ml; day 15 compared to day 1
Method: Cell proliferation inside the RGD-peptide coupled HA-DTPH/PEGDA hydrogel. NIH 3T3 fibroblasts were suspended in 1.25% (w/v) HA-DTPH solution in complete medium (pH 7.4) at a density of 1×10^6/ml, and then 1 ml of stock peptide-coupled PEGDA or blank PEGDA solution (see hydrogel preparation) was added into 4 ml of cell/HA-DTPH mixture solution. After mixed, 200 μl of the mixture of HA-DTPH/PEG-diacrylate/T31 fibroblasts was injected into each well of 24-well plates. After 1 h, 1.0 ml of complete medium was added into each well and incubated in 37° C. 5% CO2 incubator. The medium was changed every day without damaging the hydrogel. The viability of NIH 3T3 fibroblast inside hydrogel following 1, 5 and 15 d in vitro culture was determined by a double-staining procedure (Saha, et al., Dev. Comp. Immunol. 27:351, 2003) using fluorescein diacetate (F-DA) and propidium iodide (PI). Briefly, cell-hydrogel constructs were rinsed twice with DPBS buffer, stained with F-DA (0.02 mg/ml)(Molecular Probes, Eugene, Oreg.) and PI (0.2 μg/ml)(Sigma) at room temperature for 3 min, rinsed twice with DPBS buffer, stored on ice, and observed under confocal microscope (Zeiss Axioplan 2 Imaging System, LSM 5 Pa).
The cell proliferation inside hydrogel following in vitro culture of day 1, 5, 10 and 15 was determined by MTT (3-[4,5-dimethylthiazol-2-yl]-2,5-diphenyltetrazolium bromide) assay (Sigma). A 1% MTT in serum-free media solution was added to each well containing the cell-hydrogel construct. Active mitochondria metabolize the tetrazolium salt to form an insoluble formazin dye. After 8 h of incubation, the constructs were placed in 10 ml glass vials and 2 ml 0.04 N HCl in isopropanol was added to extract the formazin. The absorbance was recorded at 550 nm with an OPTI Max microplate reader (Molecular Devices) and was converted into a cell number based on standard curves.

[4] = test system: NIH 3T3 fibroblasts; assay: Cell spreading on RGD-peptide coupled HA-DTPH/PEGDA hydrogel surface, NIH 3T3; format: cell-based
Method: as §1
Cell spreading on the RGD-peptides coupled HA-DTPH/PEGDA hydrogel surface. HA-DTPH/PEGDA hydrogels or hydrogel films in 24-well plate were rinsed with serum free medium or complete medium 3 times, and then CF-31 and NIH 3T3 fibroblasts were seeded on the surface of the hydrogel or hydrogel film surface at a density of 4×10^4/well. Then, 1 ml of serum free medium or complete medium was added into each well, and the cells were cultured at 37° C. in a humidified 5% CO2 incubator. At 2, 4, 8 and 18 h post seeding, 0.4 ml of 10% formalin solution (Sigma) was added into each well to fix cell for 15 min. The cells were then stained at room temperature with 0.1% crystal violet in 200 mM boric acid (pH 8.0) for 15 minutes. […]

[5] = test system: NIH 3T3 fibroblasts; assay: Injectable fibrous tissue regeneration in nude mouse, histology and procollagen immunohistochemistry; format: in vivo, nude mice
Method: RGD-peptide coupled HA-DTPH/PEGDA hydrogel for injectable fibrous tissue regeneration in nude mouse. Animal experiments were carried out according to NIH guidelines for the care and use of laboratory animals (NIH publication #85-23 rev. 1985). Male nude mice (n=12) (Simonsen Laboratories Inc., Gilroy, Calif.), 4-6 weeks old were anesthetized with 2.5% isoflurane using a VetEquip inhalation anesthesia system (Pleasanton, Calif.). NIH 3T3 fibroblasts were suspended in 1.25% (w/v) HA-DTPH solution in complete medium (pH 7.4) at a density of 50×10^6 cell/ml, and then 1 ml stock CRGDS-coupled PEGDA (peptide concentration 10/100) or blank PEGDA (see 2.4 hydrogel preparation) was added into 4 ml cell/HA-DTPH mixture solution and mixed. Each nude mouse received four 300 μl s.c. dorsal injections by means of an 18-gauge needle under the dorsal panniculus camosus (two 300 μl solution with cells and two 300 μl solution without cells as control). At each time point (4 and 8 weeks after implantation), two nude mice were sacrificed, and the implants with the surrounding tissues were removed from the mouse, fixed in 10% buffered formalin solution (Sigma) for 24 h, embedded in paraffin, cut into 5-μm sections, and mounted onto slides.
Histological and immunohistochemical staining. […]

[6] = peptide concentration in bulk 0.0054 mM
[7] = peptide concentration in bulk 0.0268 mM
[8] = peptide concentration in bulk 0.134 mM
[9] = peptide concentration in bulk 0.268 mM
[10] = PEG spacer molecular weight 3400, peptide concentration in bulk 0.268 mM

Substance | percentage of spreading cells [1, 6] [%] | percentage of spreading cells [1, 7] [%] | percentage of spreading cells [1, 8] [%] | percentage of spreading cells [1, 9] [%] | proliferation of NIH 3T3 fibroblasts on surface [2] | cell proliferation inside the hydrogel [3] [%] | cell attachment and spreading ([1]; CF-31, serum free medium) | cell morphology on hydrogel surface ([4]; 4 and 8 h post-seeding) | round cell percent ([1]; PEG spacer molecular weight 700, peptide concentration in bulk 0.268 mM) [%] | round cell percent [1, 10] [%] | spreading percent of CF-31 fibroblast [1, 10] [%] | percentage of round cells [1, 6] [%] | percentage of round cells [1, 9] [%] | cell density relative to cell culture polystyrene control ([2]; hydrogel film surface, 4 days culture, CRGDS concentration in bulk 0.268 mM) | fibrous tissue and procollagen versus hydrogel lacking the peptide ([5]; cell-seeded hydrogel, 4 weeks post-injection) | signs of biological incompatibility (necrosis or damage to the surrounding tissues) ([5]; s.c. injection in nude mice, gel formed in vivo) | cell area ([4]; at 4 and 8 h)
CCRGDS | 8.3 | 12.4 | 36.8 | 46.5 | 1.50 fold | 253 |  |  |  |  |  |  |  |  |  |  | 
CRDGS [reference compound] |  |  |  |  | no spreading or proliferation was observed | 245 | failed to promote cell spreading | the cells were rounded |  |  |  |  |  |  |  |  | 
CRGDS | 19.1 | 31.3 | 48.2 | 53.0 | 1.64 fold | 253 |  |  | 75.6 | 9.4 | 53 | 51.2 | 18 | ca. 80% | More uniform fibrous tissue and procollagen | No signs of biological incompatibility | larger than that for CCRGDS
